Laboratory results from PMC3350798 (Journal of Medicinal Chemistry, 2012).
“Also recorded” adds a separate entry of the source. Like-named read-outs stand apart in the source and are kept apart here.

Columns and labels:
[1] = system: 60 human cancer cell lines; conditions: read-out: MGM GI50, mean graph midpoint; cited from earlier work
Tdp1 [2] = target: T1, Tdp1 (Homo sapiens, UniProt Q9NUW8); conditions: cited from earlier work
Human recombinant Top1 = target: T2, Human recombinant Top1 (Homo sapiens, UniProt P11387); experiment: Topoisomerase I-mediated DNA cleavage assay; type: biochemical; conditions: semiquantitative, relative to 1 μM camptothecin
T2 sequence (P11387 1-765): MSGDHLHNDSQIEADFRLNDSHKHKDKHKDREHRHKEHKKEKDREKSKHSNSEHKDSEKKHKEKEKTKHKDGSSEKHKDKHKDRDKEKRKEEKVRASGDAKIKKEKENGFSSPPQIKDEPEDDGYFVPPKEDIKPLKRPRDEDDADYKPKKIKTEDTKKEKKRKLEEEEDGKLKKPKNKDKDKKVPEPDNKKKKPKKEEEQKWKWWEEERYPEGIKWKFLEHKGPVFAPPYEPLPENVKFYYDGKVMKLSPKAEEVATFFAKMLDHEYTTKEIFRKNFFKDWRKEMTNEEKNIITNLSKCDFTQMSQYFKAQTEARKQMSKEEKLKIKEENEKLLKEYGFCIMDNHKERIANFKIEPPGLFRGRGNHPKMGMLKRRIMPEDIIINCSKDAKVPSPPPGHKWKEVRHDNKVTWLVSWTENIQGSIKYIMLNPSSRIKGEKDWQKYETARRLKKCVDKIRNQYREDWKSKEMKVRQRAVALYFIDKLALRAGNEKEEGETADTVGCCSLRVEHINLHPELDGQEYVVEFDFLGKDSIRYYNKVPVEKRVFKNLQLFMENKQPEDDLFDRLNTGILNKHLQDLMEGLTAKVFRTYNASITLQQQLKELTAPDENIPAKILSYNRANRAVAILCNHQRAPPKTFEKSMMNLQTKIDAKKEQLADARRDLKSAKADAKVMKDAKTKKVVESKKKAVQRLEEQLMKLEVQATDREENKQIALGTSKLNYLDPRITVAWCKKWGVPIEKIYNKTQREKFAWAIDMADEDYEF

Tdp1 [3] = target: T1, Tdp1; experiment: FRET assay, mechanism of inhibition of Tdp1; type: biochemical
Tdp1 [4] = target: T1, Tdp1; experiment: Surface plasmon resonance binding to amine coupled Tdp1; conditions: 33, 11, 3.7, 1.2 and 0.4 μM injected over amine coupled Tdp1

T1 sequence (Q9NUW8 whole entry): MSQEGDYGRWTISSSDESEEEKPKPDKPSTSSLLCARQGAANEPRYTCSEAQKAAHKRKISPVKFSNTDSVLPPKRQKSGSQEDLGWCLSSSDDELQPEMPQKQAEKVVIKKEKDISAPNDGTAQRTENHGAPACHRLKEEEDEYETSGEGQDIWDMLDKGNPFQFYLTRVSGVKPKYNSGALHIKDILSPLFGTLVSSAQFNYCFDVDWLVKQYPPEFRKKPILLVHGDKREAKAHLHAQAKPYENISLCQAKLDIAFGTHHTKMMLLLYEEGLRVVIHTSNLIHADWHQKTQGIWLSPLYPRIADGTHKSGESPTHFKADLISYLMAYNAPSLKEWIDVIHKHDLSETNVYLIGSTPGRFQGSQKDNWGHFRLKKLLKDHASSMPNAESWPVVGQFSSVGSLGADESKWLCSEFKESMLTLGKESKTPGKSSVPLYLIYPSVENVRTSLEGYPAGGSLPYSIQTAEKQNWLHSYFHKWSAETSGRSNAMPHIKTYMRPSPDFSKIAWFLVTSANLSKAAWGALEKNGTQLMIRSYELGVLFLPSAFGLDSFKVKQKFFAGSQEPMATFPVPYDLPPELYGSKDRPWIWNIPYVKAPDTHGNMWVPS

Compound: O=C1c2ccccc2-c2c1c1ccccc1c(=O)n2CCCNCCCNCCCn1c2c(c3ccccc3c1=O)C(=O)c1ccccc1-2 [compound 145, Bis-1,3-{(5,6-dihydro-5,11-diketo-11H-indeno[1,2-c]isoquinoline)-6-propylamino}propane Bis(trifluoroacetate)]
- GI50 [1]: 394 nM

Compound: [O]=[V]([O-])([O-])[O-] [vanadate]
- Tdp1 inhibition (Tdp1 [2]): inhibition at millimolar concentrations

Compound: C[C@]12CC[C@H]3[C@@H](CCC4=CC(=O)CC[C@@]43C)[C@@H]1CC[C@@H]2C(=O)COS(=O)(=O)c1ccc(Br)cc1 [compound 7, 4-Pregnen-21-ol-3,20-dione-21-(4-bromobenzenesufonate)]
- Mechanism of inhibition of Tdp1 (Tdp1 [2]): competitive with the DNA substrate

Compound: Cl.NCCCCCCCCCCCCn1c2c(c3ccccc3c1=O)C(=O)c1ccccc1-2 [compound 79]
- Top1 (compound-induced DNA cleavage due to Top1 inhibition) (Human recombinant Top1): 0/+

Compound: Cl.NCCCn1c2c(c3ccccc3c1=O)C(=O)c1ccccc1-2 [compound 70]
- Mechanism of inhibition of Tdp1 (Tdp1 [3]): competitive inhibitor
- Binding to Tdp1 by surface plasmon resonance (Tdp1 [4]): direct binding; also recorded: rapidly reaches equilibrium and then completely dissociates
